Results as given in ChEMBL document CHEMBL1201862, “PubChem BioAssay data set” (2004).
Several values for one entry are separate records, joined by “and”; a condition that tells them apart may be missing. Equal entries are not always repeated.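 These data come from cells grown in 96-well plates and exposed to compound for 48 hours at five concentrations. GI50 marks 50% less growth.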 Activity calls are given as the source filed them. No stated cut-off is given here; in the data, active = GI50 up to about 1.1 µM and inactive = higher.

How the values were obtained:
Assay in all cases: inhibition of tumour cell growth, NCI panel, 48 h
[1] = tested on: RXF 631
[2] = tested on: DMS-114
[3] = tested on: M19-MEL
[4] = tested on: LXFL 529
[5] = tested on: DMS-273
[6] = tested on: SNB-78
[7] = tested on: HOP-18
[8] = tested on: KM-20L2
[9] = tested on: XF498

| SMILES | GI50 [1] | GI50 [2] | GI50 [3] | GI50 [4] | GI50 [5] | GI50 [6] | GI50 [7] | GI50 [8] | GI50 [9] |
| --- | --- | --- | --- | --- | --- | --- | --- | --- | --- |
| COc1ccc(C(=O)CC(=O)C(=O)Nc2ccc(C)c(C)c2)cc1 | > 68.2 µM (inactive) | 22.8 µM (inactive) | > 100 µM (inactive) | > 64.9 µM (inactive) | 40 µM (inactive) | > 100 µM (inactive) | > 70.8 µM (inactive) | > 77.1 µM (inactive) |  |
| Clc1ccc(-c2c(C3=NCCCN3)nnn2-c2ccc(Cl)cc2)cc1 |  | 21.7 µM (inactive) |  | 29 µM (inactive) | 60.5 µM (inactive) | 43.6 µM (inactive) | > 100 µM (inactive) | 29.5 µM (inactive) | 22.6 µM (inactive) |
| C[Si](C)(C)C#C[I+]c1ccccc1 | 30.1 µM (inactive) | 20.9 µM (inactive) | 31.6 µM (inactive) | 28.4 µM (inactive) | 19.8 µM (inactive) | 50.2 µM (inactive) | 75.5 µM (inactive) | 37.5 µM (inactive) | 29.8 µM (inactive) |
| O/N=C1/C(=C/c2ccc(Cl)cc2)CCCC1C(NO)c1ccc(Cl)cc1 (configuration not stated) | 18.1 µM (inactive) | 24.5 µM (inactive) | 22.9 µM (inactive) | 25.3 µM (inactive) | 17.8 µM (inactive) | 21.9 µM (inactive) | 20.3 µM (inactive) | 17.6 µM (inactive) | 22.5 µM (inactive) |
| COc1ccc(OC(C)C(=O)O)c2c1CCCC2=O (configuration not stated) |  | > 100 µM (inactive) | > 100 µM (inactive) | > 100 µM (inactive) | > 100 µM (inactive) | > 100 µM (inactive) |  | < 0.01 µM (active) | > 100 µM (inactive) |
| C/C(=N/OCCC(=O)O)C1CC1 |  | > 100 µM (inactive) | > 100 µM (inactive) | > 100 µM (inactive) | > 100 µM (inactive) | > 100 µM (inactive) | > 100 µM (inactive) | > 100 µM (inactive) | > 100 µM (inactive) |
| O=C(c1ccccc1)c1nnn(Cc2ccccc2Cn2nnc(C(=O)c3ccccc3)c2C(=O)c2ccccc2)c1C(=O)c1ccccc1 |  | 81.1 µM (inactive) | > 100 µM (inactive) | > 100 µM (inactive) | > 100 µM (inactive) | > 100 µM (inactive) | > 100 µM (inactive) | > 100 µM (inactive) |  |
| CC(C)=CCSC1CC2C(CC1(C)O)C2(C)C (configuration not stated) |  | 15.6 µM (inactive) and 10.1 µM (inactive) |  | 17.3 µM (inactive) and 14 µM (inactive) | 15.8 µM (inactive) and 9.98 µM (inactive) | 23.4 µM (inactive) and 12 µM (inactive) |  | 15.7 µM (inactive) and 19.1 µM (inactive) | 4.84 µM (inactive) and 4.62 µM (inactive) |
| COC1C(OC(=S)Nc2ccccc2)c2ccccc2N1C(C)=O (configuration not stated) |  | 60.7 µM (inactive) | > 100 µM (inactive) | 44.4 µM (inactive) | 85.3 µM (inactive) | > 100 µM (inactive) | > 100 µM (inactive) | 57.4 µM (inactive) | > 100 µM (inactive) |
| CCCCCCC(=O)CC(=O)C(=O)Nc1ccccc1C | > 100 µM (inactive) | > 69.7 µM (inactive) | > 100 µM (inactive) | > 100 µM (inactive) | > 100 µM (inactive) | > 100 µM (inactive) | > 100 µM (inactive) | > 100 µM (inactive) | > 100 µM (inactive) |
| COc1ccc(-c2c(C3=NCCN3)nnn2-c2ccccc2)cc1 |  | > 100 µM (inactive) | > 100 µM (inactive) | > 100 µM (inactive) | > 100 µM (inactive) | > 100 µM (inactive) | > 100 µM (inactive) | > 100 µM (inactive) | > 100 µM (inactive) |
| Cc1ccc(-c2cc(=S)n(-c3ccccc3)c3[nH]c(=S)n(-c4ccccc4)c(=N)c23)cc1 |  | > 100 µM (inactive) | > 100 µM (inactive) | > 100 µM (inactive) | > 100 µM (inactive) |  |  | > 100 µM (inactive) |  |
| COc1cc2c(cc1OC)C(SC)C(=O)N(Cc1cccc(OC)c1OC)CC2 (configuration not stated) |  | 0.621 µM (active) | 1.2 µM (inactive) | 2.84 µM (inactive) | 0.553 µM (active) | 0.359 µM (active) | 1.49 µM (inactive) | 1.19 µM (inactive) |  |
| COc1ccc2c(c1)[n+]([O-])c(-c1ccccc1Cl)c(N)[n+]2[O-] | 37.4 µM (inactive) | 32.8 µM (inactive) | 69.8 µM (inactive) | 55.3 µM (inactive) | 55.6 µM (inactive) | > 100 µM (inactive) | > 100 µM (inactive) | 38.8 µM (inactive) |  |
| COc1cc(/C=C2\C(=O)N(C(=O)c3ccc(NC(C)=O)cc3)N=C2C)ccc1O |  | > 100 µM (inactive) | > 100 µM (inactive) |  | > 100 µM (inactive) | > 100 µM (inactive) | > 100 µM (inactive) |  |  |
| CCc1ccccc1NC(=O)C1=C(C)NC(C)=C(C(=O)Nc2ccccc2CC)C1c1ccc(NC(C)=O)cc1 |  | 28.1 µM (inactive) | 32.7 µM (inactive) | 33 µM (inactive) |  | 33.3 µM (inactive) |  | 16.4 µM (inactive) |  |
| OCC1C(/C=C/c2ccoc2)ON2CCCC12 (configuration not stated) |  |  | > 100 µM (inactive) | > 100 µM (inactive) | > 100 µM (inactive) | > 100 µM (inactive) | 0.279 µM (active) | > 100 µM (inactive) | > 100 µM (inactive) |
| Cc1cccc(C)c1NC(=O)C1C(=O)N(c2c(C)cccc2C)C(=O)/C1=N\NC(N)=S (configuration not stated) |  | 36.1 µM (inactive) | > 100 µM (inactive) | > 100 µM (inactive) |  | > 100 µM (inactive) | 17.3 µM (inactive) | 82.8 µM (inactive) |  |
| CC(C)(Oc1ccc(/C=C/C(=O)c2ccccc2)cc1)C(=O)Nc1c(Cl)cccc1Cl |  | 8.47 µM (inactive) | > 10 µM (inactive) | 6.56 µM (inactive) | 8.07 µM (inactive) | > 10 µM (inactive) | > 10 µM (inactive) | > 10 µM (inactive) | > 10 µM (inactive) |
| Cc1nc(Nc2ccc(Cl)cc2)sc1C(=O)NNC(=O)C(=O)NN |  | 20.4 µM (inactive) | 19.2 µM (inactive) | 18.3 µM (inactive) | 19.1 µM (inactive) | 26.9 µM (inactive) | 16.2 µM (inactive) | 16.3 µM (inactive) |  |
| Cc1c(C(=O)/C=C/c2ccc(N(C)C)cc2)c(=O)n(-c2ccccc2)n1C |  | > 100 µM (inactive) | > 100 µM (inactive) | > 100 µM (inactive) | > 100 µM (inactive) | > 100 µM (inactive) |  | > 100 µM (inactive) | > 100 µM (inactive) |
| CC(C)C(NCc1c2ccccc2nc2ccccc12)C(=O)O (configuration not stated) | 19.9 µM (inactive) | 27.2 µM (inactive) | 33 µM (inactive) | 39 µM (inactive) | 32.6 µM (inactive) |  |  | 58.2 µM (inactive) | 21.1 µM (inactive) |
| O=[N+]([O-])c1ccc(-n2nnc(C3=NCCN3)c2-c2ccc(Cl)cc2)cc1 |  | 77.1 µM (inactive) | > 100 µM (inactive) | > 100 µM (inactive) | > 100 µM (inactive) | > 100 µM (inactive) | > 100 µM (inactive) | > 100 µM (inactive) | > 100 µM (inactive) |
| O=[N+]([O-])c1cccc(C2N3CCCCC3[C@@H]3c4[nH]c5ccccc5c4CCN23)c1 (some centres not stated) |  | 6.9 µM (inactive) | 11.9 µM (inactive) | 19 µM (inactive) | 11.8 µM (inactive) | 9.79 µM (inactive) | 54.6 µM (inactive) | 11 µM (inactive) | 14 µM (inactive) |
| c1ccc(-c2nnc(-c3nn(-c4ccccc4)c4nc5ccccc5nc34)o2)cc1 |  | 28.8 µM (inactive) | 47.8 µM (inactive) | 12.3 µM (inactive) | 92 µM (inactive) | > 100 µM (inactive) | 20 µM (inactive) | > 100 µM (inactive) | 22.1 µM (inactive) |
